Several values for one entry are separate records, joined by “and”; a condition that tells them apart may be missing. Equal entries are not always repeated. Toxic doses and inconclusive results are not listed.
System: L1210 leukemia ip in BDF1 mice, survival T/C
Assay: NCI In Vivo Anticancer Drug Screen. Data for tumor model L1210 Leukemia (intraperitoneal) in B6D2F1 (BDF1) mice
Settings: endpoint: mean survival time, higher = longer survival
Method in brief: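 Each compound was tested against a transplantable tumor grown in mice. The endpoint was survival, with treated animals benchmarked against vehicle controls as a simple ratio.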

[1] = dose: 50.0 mg/kg/injection, schedule: Q01DX001 (ip), vehicle: saline
[2] = dose: 100.0 mg/kg/injection, schedule: Q01DX001 (ip), vehicle: saline
[3] = dose: 200.0 mg/kg/injection, schedule: Q01DX001 (ip), vehicle: saline
[4] = dose: 100.0 mg/kg/injection, schedule: Q01DX001 (ip), vehicle: Klucel (hydroxypropylcellulose) (HPC)
[5] = dose: 200.0 mg/kg/injection, schedule: Q01DX001 (ip), vehicle: Klucel (hydroxypropylcellulose) (HPC)
[6] = dose: 400.0 mg/kg/injection, schedule: Q01DX001 (ip), vehicle: Klucel (hydroxypropylcellulose) (HPC)
[7] = dose: 100.0 mg/kg/injection, schedule: Q01DX001 (ip), vehicle: carboxymethylcellulose (CMC)
[8] = dose: 200.0 mg/kg/injection, schedule: Q01DX001 (ip), vehicle: carboxymethylcellulose (CMC)
[9] = dose: 400.0 mg/kg/injection, schedule: Q01DX001 (ip), vehicle: carboxymethylcellulose (CMC)
[10] = dose: 50.0 mg/kg/injection, schedule: Q01DX009 (ip), vehicle: saline
[11] = dose: 200.0 mg/kg/injection, schedule: Q01DX009 (ip), vehicle: saline

SMILES: C=C([Si](C)(C)C)[Si](C)(C)C
- T/C (dose: 100.0 mg/kg/injection, schedule: Q04DX003 (ip), vehicle: saline with Tween-80): 102 % of control
- T/C (dose: 200.0 mg/kg/injection, schedule: Q04DX003 (ip), vehicle: saline with Tween-80): 102 % of control
- T/C (dose: 400.0 mg/kg/injection, schedule: Q04DX003 (ip), vehicle: saline with Tween-80): 94 % of control

SMILES: OCCNC(c1ccc(Cl)cc1)C(O)c1ccc(Cl)cc1 (stereo not drawn)
- T/C [1]: 98 % of control
- T/C [2]: 98 % of control
- T/C [3]: 98 % of control

SMILES: CSc1ncc2c(=O)n(-c3ccccc3)[nH]c2n1
- T/C [4]: 103 % of control
- T/C [5]: 97 % of control
- T/C [6]: 87 % of control

SMILES: O=C(Nc1ccc(NC(=O)Nc2ccc(C3=NCCN3)cc2)cc1)Nc1ccc(C2=NCCN2)cc1
- T/C (dose: 110.0 mg/kg/injection, schedule: Q01DX Z (ip), vehicle: carboxymethylcellulose (CMC)): 100 % of control and 115 % of control
- T/C (dose: 240.0 mg/kg/injection, schedule: Q01DX Z (oral), vehicle: carboxymethylcellulose (CMC)): 98 % of control
- T/C (dose: 303.0 mg/kg/injection, schedule: Q01DX Z (ip), vehicle: carboxymethylcellulose (CMC)): 160 % of control
- T/C (dose: 375.0 mg/kg/injection, schedule: Q01DX Z (ip), vehicle: carboxymethylcellulose (CMC)): 98 % of control
- T/C (dose: 455.0 mg/kg/injection, schedule: Q01DX Z (ip), vehicle: carboxymethylcellulose (CMC)): 93 % of control
- T/C (dose: 480.0 mg/kg/injection, schedule: Q01DX Z (oral), vehicle: carboxymethylcellulose (CMC)): 104 % of control
- T/C (dose: 960.0 mg/kg/injection, schedule: Q01DX Z (oral), vehicle: carboxymethylcellulose (CMC)): 107 % of control

SMILES: CC(=O)N(O)c1ccc(-c2cc3ccccc3[nH]2)cc1
- T/C [7]: 101 % of control
- T/C [8]: 93 % of control
- T/C [9]: 93 % of control

SMILES: N=C(N)c1ccc(OCCCCCOc2ccc(C(=N)N)cc2)cc1
- T/C (dose: 12.5 mg/kg/injection, schedule: Q01DX Z (oral), vehicle: saline): 95 % of control
- T/C (dose: 25.0 mg/kg/injection, schedule: Q01DX Z (oral), vehicle: saline): 95 % of control
- T/C (dose: 50.0 mg/kg/injection, schedule: Q01DX Z (oral), vehicle: saline): 100 % of control
- T/C (dose: 100.0 mg/kg/injection, schedule: Q01DX Z (oral), vehicle: saline): 100 % of control

SMILES: CC(C)(SCCc1ccccn1)C(N)C(=O)O (stereo not drawn)
- T/C [4]: 102 % of control
- T/C [5]: 107 % of control
- T/C [6]: 96 % of control

SMILES: O=[N+]([O-])c1cccc(Cl)c1O
- T/C (dose: 100.0 mg/kg/injection, schedule: Q01DX001 (ip), vehicle: gum acacia): 98 % of control
- T/C (dose: 200.0 mg/kg/injection, schedule: Q01DX001 (ip), vehicle: gum acacia): 100 % of control

SMILES: CCCC(=O)C(CC)C(OC(C)=O)(C(F)(F)F)C(F)(F)F (stereo not drawn)
- T/C (dose: 75.0 mg/kg/injection, schedule: Q01DX009 (ip), vehicle: Klucel (hydroxypropylcellulose) (HPC)): 87 % of control
- T/C (dose: 150.0 mg/kg/injection, schedule: Q01DX009 (ip), vehicle: Klucel (hydroxypropylcellulose) (HPC)): 89 % of control
- T/C (dose: 300.0 mg/kg/injection, schedule: Q01DX009 (ip), vehicle: Klucel (hydroxypropylcellulose) (HPC)): 87 % of control

SMILES: O=C(O)c1cc([N+](=O)[O-])ccc1P(=O)(O)O
- T/C (dose: 75.0 mg/kg/injection, schedule: Q01DX001 (ip), vehicle: saline): 93 % of control
- T/C (dose: 150.0 mg/kg/injection, schedule: Q01DX001 (ip), vehicle: saline): 95 % of control

SMILES: O=[N+]([O-])/C=C/c1ccco1
- T/C (dose: 18.75 mg/kg/injection, schedule: Q04DX003 (ip), vehicle: saline with Tween-80): 101 % of control
- T/C (dose: 37.5 mg/kg/injection, schedule: Q04DX003 (ip), vehicle: saline with Tween-80): 95 % of control
- T/C (dose: 75.0 mg/kg/injection, schedule: Q04DX003 (ip), vehicle: saline with Tween-80): 101 % of control

SMILES: CCCn1c(N)cc(=O)[nH]c1=S
- T/C [1]: 100 % of control
- T/C [2]: 96 % of control
- T/C [3]: 100 % of control
- T/C (dose: 400.0 mg/kg/injection, schedule: Q01DX001 (ip), vehicle: saline): 100 % of control

SMILES: O=C1N2CCOC2=NC1(c1ccccc1)c1ccccc1
- T/C [10]: 111 % of control
- T/C (dose: 100.0 mg/kg/injection, schedule: Q04DX003 (ip), vehicle: saline): 94 % of control
- T/C (dose: 200.0 mg/kg/injection, schedule: Q04DX003 (ip), vehicle: saline): 103 % of control

SMILES: CC(=O)OCC1OC(n2cc(F)c(=O)[nH]c2=O)CC1OC(C)=O (stereo not drawn)
- T/C (dose: 3.0 mg/kg/injection, schedule: Q01DX009 (ip), vehicle: saline): 98 % of control
- T/C (dose: 6.0 mg/kg/injection, schedule: Q01DX009 (ip), vehicle: saline): 95 % of control
- T/C (dose: 12.0 mg/kg/injection, schedule: Q01DX009 (ip), vehicle: saline): 95 % of control
- T/C (dose: 24.0 mg/kg/injection, schedule: Q01DX009 (ip), vehicle: saline): 106 % of control
- T/C (dose: 25.0 mg/kg/injection, schedule: Q01DX009 (ip), vehicle: saline): 111 % of control
- T/C [10]: 122 % of control
- T/C [11]: 123 % of control

SMILES: CCCCCCCCCC(=O)N/N=C/c1ccncc1
- T/C (dose: 100.0 mg/kg/injection, schedule: Q01DX009 (ip), vehicle: Klucel (hydroxypropylcellulose) (HPC)): 89 % of control
- T/C (dose: 200.0 mg/kg/injection, schedule: Q01DX009 (ip), vehicle: Klucel (hydroxypropylcellulose) (HPC)): 103 % of control

SMILES: CC#CCOCC(O)CCl (stereo not drawn)
- T/C (dose: 100.0 mg/kg/injection, schedule: Q01DX009 (ip), vehicle: saline): 94 % of control
- T/C (dose: 100.0 mg/kg/injection, schedule: Q04DX003 (ip), vehicle: saline sonified): 108 % of control
- T/C [11]: 91 % of control
- T/C (dose: 200.0 mg/kg/injection, schedule: Q04DX003 (ip), vehicle: saline sonified): 103 % of control
- T/C (dose: 400.0 mg/kg/injection, schedule: Q01DX009 (ip), vehicle: saline): 105 % of control
- T/C (dose: 400.0 mg/kg/injection, schedule: Q04DX003 (ip), vehicle: saline sonified): 117 % of control

SMILES: OC(c1ccccc1)c1ccccc1 (tested in a mixture with another compound)
- T/C (dose: 2.5 mg/kg/injection, schedule: Q01DX009 (ip), vehicle: acetone): 107 % of control
- T/C (dose: 5.0 mg/kg/injection, schedule: Q01DX009 (ip), vehicle: acetone): 105 % of control
- T/C (dose: 10.0 mg/kg/injection, schedule: Q01DX001 (ip), vehicle: saline): 93 % of control
- T/C (dose: 10.0 mg/kg/injection, schedule: Q01DX009 (ip), vehicle: acetone): 98 % of control
- T/C (dose: 20.0 mg/kg/injection, schedule: Q01DX001 (ip), vehicle: saline): 88 % of control

SMILES: COC(=O)C#CCCC#CC(C)=O
- T/C (dose: 18.0 mg/kg/injection, schedule: Q04DX002 (ip), vehicle: gum acacia): 96 % of control
- T/C (dose: 37.0 mg/kg/injection, schedule: Q04DX002 (ip), vehicle: gum acacia): 107 % of control
- T/C (dose: 75.0 mg/kg/injection, schedule: Q04DX002 (ip), vehicle: gum acacia): 102 % of control and 104 % of control

SMILES: CC1(C)CCC(=NO)CC1
- T/C (dose: 75.0 mg/kg/injection, schedule: Q01DX001 (ip), vehicle: other): 103 % of control
- T/C (dose: 150.0 mg/kg/injection, schedule: Q01DX001 (ip), vehicle: other): 97 % of control

SMILES: CC(=O)C(c1ccccc1)N(C)C(=O)c1ccccc1 (stereo not drawn)
- T/C (dose: 100.0 mg/kg/injection, schedule: Q04DX003 (ip), vehicle: acetone): 93 % of control
- T/C (dose: 200.0 mg/kg/injection, schedule: Q04DX003 (ip), vehicle: acetone): 86 % of control
- T/C (dose: 400.0 mg/kg/injection, schedule: Q04DX003 (ip), vehicle: acetone): 89 % of control

SMILES: O=C1CCSc2ccccc21
- T/C (dose: 37.5 mg/kg/injection, schedule: Q01DX009 (ip), vehicle: saline): 102 % of control
- T/C (dose: 75.0 mg/kg/injection, schedule: Q01DX009 (ip), vehicle: saline): 111 % of control
- T/C [7]: 92 % of control
- T/C (dose: 100.0 mg/kg/injection, schedule: Q01DX009 (ip), vehicle: saline sonified): 105 % of control
- T/C (dose: 100.0 mg/kg/injection, schedule: Q04DX003 (ip), vehicle: other): 96 % of control
- T/C (dose: 150.0 mg/kg/injection, schedule: Q01DX009 (ip), vehicle: saline): 104 % of control
- T/C [8]: 106 % of control
- T/C (dose: 200.0 mg/kg/injection, schedule: Q01DX009 (ip), vehicle: saline sonified): 93 % of control
- T/C (dose: 200.0 mg/kg/injection, schedule: Q04DX003 (ip), vehicle: other): 96 % of control
- T/C [9]: 111 % of control
- T/C (dose: 400.0 mg/kg/injection, schedule: Q01DX009 (ip), vehicle: saline sonified): 97 % of control
- T/C (dose: 400.0 mg/kg/injection, schedule: Q04DX003 (ip), vehicle: other): 102 % of control

From PubChem BioAssay AID248 (DTP/NCI, 2004)
